Patent publication US11679098B2, “Methods for treating diseases” (UNIVERSITY OF LOUISVILLE RESEARCH FOUNDATION, INC., priority 2018, dated 2023)

Tests used:
[1] = test system: A549 (lung adenocarcinoma); experiment: MTT antiproliferative assay in A549 cells; type: cell-based, human; conditions: Homo sapiens, 72 hrs treatment, MTT
Protocol: (§1) Cell culture. A549 and IMR-90 cells were purchased from the American Type Culture Collection (ATCC), while HOP-62 and HOP-92 were obtained from the cell line repository at the National Cancer Institute. Cells were grown in the appropriate medium supplemented with 10% fetal bovine serum (FBS, Life Technologies, Grand Island, N.Y.), 62.5 μg/mL penicillin and 100 μg/mL streptomycin (Life Technologies) in a humidified incubator at 37° C. with 5% CO2. The media were as follows: Dulbecco's modified Eagle's medium (DMEM, Life Technologies) for A549 cells; RPMI 1640 (Life Technologies) for HOP-62 and HOP-92 cells; Eagle's minimal essential medium (EMEM) with Eagle's balanced salt solution (EBSS), 2 mM L-glutamine, 1500 mg/L sodium bicarbonate (Lonza, Walkersville, Md.), supplemented with 1 mM sodium pyruvate (Life Technologies) and non-essential amino acids (Life Technologies) for IMR-90 cells. Cell lines were verified with a 9-marker short tandem repeat profile and inter-species contamination test (Idexx BioResearch), although A549 cells utilized in proliferation assays were missing the Y allele at the amelogenin marker.
(§2) Cell proliferation & viability assays. Anti-proliferative activity of XB05 and other compounds was evaluated using a previously published 3-(4,5-dimethylthiazol-2-yl)-2,5-diphenyltetrazolium bromide (MTT) assay protocol (MORGAN “Tetrazolium (MTT) assay for cellular viability and activity” Methods Mol Biol. (1998) Vol. 79, pp. 179-83, which is herein incorporated by reference in its entirety, BATES et al. “Antiproliferative activity of G-rich oligonucleotides correlates with protein binding” J Biol Chem. (1999) Vol. 274, No. 37, pp. 26369-26377, which is herein incorporated by reference in its entirety, SALIPUR et al. “A novel small molecule that induces oxidative stress and selectively kills malignant cells” Free Radic Biol Med. (2014) Vol. 68, pp. 110-121, which is herein incorporated by reference in its entirety). Cells were seeded in quadruplicate wells in 96-well plates and allowed to adhere overnight. […] After 72 hrs of treatment with XB05 or other compounds, MTT (Sigma, St. Louis, Mo.) was added for 4 hrs prior to cell lysis. Each assay was performed in at least triplicate.
(§3) XB05 and related compounds were assessed for anti-proliferative activity in malignant (A549) and non-malignant (IMR-90) cells (Table A2).

[2] = test system: IMR-90 (non-malignant lung fibroblasts); experiment: MTT antiproliferative assay in IMR-90 cells; type: cell-based; conditions: Homo sapiens, 72 hrs treatment, read-out: MTT Antiproliferative Activity - IC50 (μM) IMR0 (non-malignant lung fibroblasts)
Protocol: as §1, §2, §3

[3] = DTNB assay for reactivity with free thiols, cysteine; type: physicochemical; conditions: 0.25 mM cysteine, 30 min at 37° C., pH 8.0
Protocol: (§4) Dithiobis-2-nitrobenzioc acid (DTNB) assay for free sulfhydryls. Similar to previously described in SALIPUR et al. “A novel small molecule that induces oxidative stress and selectively kills malignant cells” Free Radic Biol Med. (2014) Vol. 68, pp. 110-121, which is herein incorporated by reference in its entirety, reactivity with free sulfhydryls was evaluated using DTNB (Sigma). Briefly, a 4× solution of DTNB (6 mM DTNB, 50 mM sodium acetate in 100 mM Tris-HCl, pH 8.0) and solutions of 0.5 mM cysteine (Sigma) and reduced glutathione (GSH, Sigma) in 100 mM Tris-HCl, pH 8.0 were freshly prepared. The 200 mM stock solutions of XB05, other compounds, diethylmaleate (Sigma), and maleimide (Sigma) were prepared in 100% DMSO, and subsequently diluted to 2× working solutions in 100 mM Tris-HCl, pH 8.0. Thiol compounds (final concentration 0.25 mM) and thiol-reactive compounds (final concentrations 0.04-5 mM) or vehicle were added in duplicate to a 96-well plate and incubated for 30 min at 37° C. DTNB solution was then added to each well (final concentration 400 μM), and incubated at room temperature for an additional 5 min. Absorbance at 412 nm was determined by a Biotek HT Synergy plate reader (Winooski, Vt.).

[4] = DTNB assay for reactivity with free thiols, reduced glutathione; type: physicochemical; conditions: 0.25 mM reduced glutathione, 30 min at 37° C., pH 8.0
Protocol: as §4

CC(C)C(O)C#CC(F)(F)Br (stereo not shown) [MNR-3-86]
IC50 [1]: > 10 µM | IC50 [2]: > 10 µM

CC(C)(C)OC(=O)NCCCCCCCCCC(O)C#CC(F)(F)Br (stereo not shown) [MNR-1-186]
IC50 [1]: > 10 µM | IC50 [2]: > 10 µM

O=C(CCCCC1SCC2NC(=O)NC21)NCCOCCOCCOCCOCCC(=O)NCCCCCCCCCC(O)C#CC(F)(F)Br (stereo not shown) [MNR-2-6]
IC50 [1]: > 10 µM | IC50 [2]: > 10 µM

CCCC(O)C#CC(F)(F)Br (stereo not shown) [MNR-1-122]
IC50 [1]: 0.8 µM | DTNB Reactivity with Thiols - DTNB assay with Cysteine [3]: ND (DTNB ND - not detected at concentrations up to 2.5 mM) | DTNB Reactivity with Thiols - DTNB assay with Glutathione [4]: ND (DTNB ND - not detected at concentrations up to 2.5 mM) | IC50 [2]: 1.1 µM

CCCCCC(O)C#CC(F)(F)F (stereo not shown) [JAB-4-156]
IC50 [1]: > 10 µM | DTNB Reactivity with Thiols - DTNB assay with Cysteine [3]: ND (DTNB ND - not detected at concentrations up to 2.5 mM) | DTNB Reactivity with Thiols - DTNB assay with Glutathione [4]: ND (DTNB ND - not detected at concentrations up to 2.5 mM) | IC50 [2]: > 10 µM

CC(C)(C)C(O)C#CC(F)(F)Br (stereo not shown) [MNR-3-85]
IC50 [1]: > 10 µM | IC50 [2]: > 10 µM

C#CC(O)CCCCC (stereo not shown) [Compound 1-Octyn-3-ol, 1-Octyn-3-ol]
IC50 [1]: > 10 µM | DTNB Reactivity with Thiols - DTNB assay with Cysteine [3]: Reactive | DTNB Reactivity with Thiols - DTNB assay with Glutathione [4]: ND (DTNB ND - not detected at concentrations up to 2.5 mM) | IC50 [2]: > 10 µM

CCCCCC(Cl)C#CC(F)(F)Br (stereo not shown) [MNR-1-102]
IC50 [1]: > 10 µM | DTNB Reactivity with Thiols - DTNB assay with Cysteine [3]: ND (DTNB ND - not detected at concentrations up to 2.5 mM) | DTNB Reactivity with Thiols - DTNB assay with Glutathione [4]: Reactive | IC50 [2]: > 10 µM

CCCCC[C@@H](O)C#CC(F)(F)Br [MNR-3-38]
IC50 [1]: 0.4 µM | DTNB Reactivity with Thiols - DTNB assay with Cysteine [3]: ND (DTNB ND - not detected at concentrations up to 2.5 mM) | DTNB Reactivity with Thiols - DTNB assay with Glutathione [4]: ND (DTNB ND - not detected at concentrations up to 2.5 mM) | IC50 [2]: 1.5 µM

CCCCCCCCCC(O)C#CC(F)(F)Br (stereo not shown) [MNR-3-69]
IC50 [1]: 1 µM | IC50 [2]: 2.8 µM

CCCCCC(=O)/C=C(\NCCC)C(F)(F)Br [JAB-4-165]
IC50 [1]: > 10 µM | DTNB Reactivity with Thiols - DTNB assay with Cysteine [3]: ND (DTNB ND - not detected at concentrations up to 2.5 mM) | DTNB Reactivity with Thiols - DTNB assay with Glutathione [4]: ND (DTNB ND - not detected at concentrations up to 2.5 mM) | IC50 [2]: > 10 µM

CCCCC[C@H](O)C#CC(F)(F)Br [MNR-3-41]
IC50 [1]: 4.8 µM | IC50 [2]: > 10 µM

CCCCCC(O)C#CC(F)(F)Oc1ccc(F)cc1 (stereo not shown) [MNR-1-110]
IC50 [1]: > 10 µM | DTNB Reactivity with Thiols - DTNB assay with Cysteine [3]: ND (DTNB ND - not detected at concentrations up to 2.5 mM) | DTNB Reactivity with Thiols - DTNB assay with Glutathione [4]: ND (DTNB ND - not detected at concentrations up to 2.5 mM) | IC50 [2]: > 10 µM

CCCCCC(C#CC(F)(F)Br)OC1CCCCO1 (stereo not shown) [MNR-3-27]
IC50 [1]: 1.9 µM | IC50 [2]: 3.7 µM

CCCCCC(=O)C#CC(F)(F)Br [JAB-4-163]
IC50 [1]: > 10 µM | DTNB Reactivity with Thiols - DTNB assay with Cysteine [3]: ND (DTNB ND - not detected at concentrations up to 2.5 mM) | DTNB Reactivity with Thiols - DTNB assay with Glutathione [4]: ND (DTNB ND - not detected at concentrations up to 2.5 mM) | IC50 [2]: > 10 µM

CCCCCC(O)C#CCBr (stereo not shown) [MNR-3-92]
IC50 [1]: 7.1 µM | DTNB Reactivity with Thiols - DTNB assay with Cysteine [3]: Reactive | DTNB Reactivity with Thiols - DTNB assay with Glutathione [4]: Reactive | IC50 [2]: 8.7 µM

CCC#CCCCCCCCC(O)C#CC(F)(F)Br (stereo not shown) [MNR-1-147]
IC50 [1]: 1.1 µM | IC50 [2]: 4 µM

CCCC(C)C(O)C#CC(F)(F)Br (stereo not shown) [MNR-1-117]
IC50 [1]: 1.9 µM | DTNB Reactivity with Thiols - DTNB assay with Cysteine [3]: ND (DTNB ND - not detected at concentrations up to 2.5 mM) | DTNB Reactivity with Thiols - DTNB assay with Glutathione [4]: ND (DTNB ND - not detected at concentrations up to 2.5 mM) | IC50 [2]: 7.9 µM

CCCCCCCC(O)C#CC(F)(F)Br (stereo not shown) [MNR-3-94]
IC50 [1]: 0.9 µM | IC50 [2]: 2.7 µM

CCCCCC(O)C#CC(F)F (stereo not shown) [MNR-3-91]
IC50 [1]: > 10 µM | IC50 [2]: > 10 µM

CCCCCC(O)C#CC(F)(F)SCc1ccccc1 (stereo not shown) [MNR-1-111]
IC50 [1]: > 10 µM | DTNB Reactivity with Thiols - DTNB assay with Cysteine [3]: ND (DTNB ND - not detected at concentrations up to 2.5 mM) | DTNB Reactivity with Thiols - DTNB assay with Glutathione [4]: ND (DTNB ND - not detected at concentrations up to 2.5 mM) | IC50 [2]: > 10 µM

CC/C=C\CCC(O)C#CC(F)(F)Br (stereo not shown) [JAB-4-169]
IC50 [1]: 0.4 µM | DTNB Reactivity with Thiols - DTNB assay with Cysteine [3]: ND (DTNB ND - not detected at concentrations up to 2.5 mM) | DTNB Reactivity with Thiols - DTNB assay with Glutathione [4]: ND (DTNB ND - not detected at concentrations up to 2.5 mM) | IC50 [2]: 3.8 µM

OC(C#CC(F)(F)Br)c1ccccc1 (stereo not shown) [MNR-3-93]
IC50 [1]: > 10 µM | IC50 [2]: > 10 µM

CCCCCCCCCCCC(O)C#CC(F)(F)Br (stereo not shown) [MNR-3-89]
IC50 [1]: 1.1 µM | IC50 [2]: 2.7 µM

OC(C#CC(F)(F)Br)CCCCc1ccccc1 (stereo not shown) [MNR-1-129]
IC50 [1]: > 10 µM | IC50 [2]: > 10 µM

CCCCCC(C#CC(F)(F)Br)OC(C)=O (stereo not shown) [MNR-3-43]
IC50 [1]: 0.9 µM | DTNB Reactivity with Thiols - DTNB assay with Cysteine [3]: ND (DTNB ND - not detected at concentrations up to 2.5 mM) | DTNB Reactivity with Thiols - DTNB assay with Glutathione [4]: ND (DTNB ND - not detected at concentrations up to 2.5 mM) | IC50 [2]: 5.4 µM

CCCCCC(C#CC(F)(F)Br)OC (stereo not shown) [JAB-4-155]
IC50 [1]: 3.5 µM | DTNB Reactivity with Thiols - DTNB assay with Cysteine [3]: ND (DTNB ND - not detected at concentrations up to 2.5 mM) | DTNB Reactivity with Thiols - DTNB assay with Glutathione [4]: ND (DTNB ND - not detected at concentrations up to 2.5 mM) | IC50 [2]: > 10 µM

CCCCCC(C)(O)C#CC(F)(F)Br (stereo not shown) [MNR-1-118]
IC50 [1]: 8.2 µM | DTNB Reactivity with Thiols - DTNB assay with Cysteine [3]: ND (DTNB ND - not detected at concentrations up to 2.5 mM) | DTNB Reactivity with Thiols - DTNB assay with Glutathione [4]: ND (DTNB ND - not detected at concentrations up to 2.5 mM) | IC50 [2]: > 10 µM

OC(C#CC(F)(F)Br)C1CCCCC1 (stereo not shown) [MNR-3-90]
IC50 [1]: 0.9 µM | IC50 [2]: 3.1 µM

CCCCCCC#CC(F)(F)Br [JAB-4-158]
IC50 [1]: 2.1 µM | DTNB Reactivity with Thiols - DTNB assay with Cysteine [3]: ND (DTNB ND - not detected at concentrations up to 2.5 mM) | DTNB Reactivity with Thiols - DTNB assay with Glutathione [4]: ND (DTNB ND - not detected at concentrations up to 2.5 mM) | IC50 [2]: > 10 µM

OC(C#CC(F)(F)Br)CCc1ccccc1 (stereo not shown) [MNR-3-82]
IC50 [1]: 1.2 µM | IC50 [2]: 2.8 µM
